In patent EP0726261A1, “Herbidical 1,2,4 thiadiazoles” (American Cyanamid Company, priority 1995, dated 1996):

How the values were obtained:
Format in all cases: in vivo
Triticum aestivum [1] = experiment: Preemergence herbicidal activity (Example 67); conditions: pre, 800 g/ha
Experimental: (§1) Herbicidal evaluation of compounds of the invention is conducted on the following plant species:
(§2) The soil is a prepared horticultural substrate containing 30% peat, 20% volcanic clay, 30% bark residues and 20% polyamide/styromull in a 1:3 mixture with loamy sand. Test solutions are prepared by dissolving the test compound in acetone containing 0.5% of an alkylphenol/ethylene oxide condensate under the trademark, TRITON® X-155, and diluting with water as needed. The test solutions are applied as a spray to the 3-6 week old seedling plants at dose rates corresponding to 800g/ha in a volume equivalent to 400 L/ha. A pneumatic spraying device employing a Teejet nozzle SS 8002E operating at 3 bar is used for a predetermined time. After spraying, the treated plants are placed on greenhouse benches and cared for in a manner commensurate with conventional greenhouse practice. After 10-21 days, the treated plants are evaluated and rated according to the rating system provided below.
(§3) The soil surface is then sprayed with test solutions as described in the postemergence evaluation hereinabove. After spraying, the treated cups are placed on greenhouse benches and cared for in the manner commensurate with conventional greenhouse practice. About 1-3 weeks after treatment the cups are evaluated and rated according to the rating system provided hereinabove.

Hordeum vulgare [2] = experiment: Preemergence herbicidal activity (Example 67); conditions: pre, 800 g/ha
Experimental: as §1, §2, §3

Setaria viridis [3] = experiment: Preemergence herbicidal activity (Example 67); conditions: pre, 800 g/ha
Experimental: as §1, §2, §3

Amaranthus retroflexus [4] = experiment: Preemergence herbicidal activity (Example 67); conditions: pre, 800 g/ha
Experimental: as §1, §2, §3

Chenopodium album [5] = experiment: Preemergence herbicidal activity (Example 67); conditions: pre, 800 g/ha
Experimental: as §1, §2, §3

Galium aparine [6] = experiment: Preemergence herbicidal activity (Example 67); conditions: pre, 800 g/ha
Experimental: as §1, §2, §3

Helianthus annuus [7] = experiment: Preemergence herbicidal activity (Example 67); conditions: pre, 800 g/ha
Experimental: as §1, §2, §3

Veronica persica [8] = experiment: Preemergence herbicidal activity (Example 67); conditions: pre, 800 g/ha
Experimental: as §1, §2, §3

Zea mays [9] = experiment: Preemergence herbicidal activity (Example 67); conditions: pre, 800 g/ha
Experimental: as §1, §2, §3

Amaranthus retroflexus [10] = experiment: Postemergence herbicidal activity (Example 67); conditions: pos, 800 g/ha
Experimental: as §1, §2

Chenopodium album [11] = experiment: Postemergence herbicidal activity (Example 67); conditions: pos, 800 g/ha
Experimental: as §1, §2

Galium aparine [12] = experiment: Postemergence herbicidal activity (Example 67); conditions: pos, 800 g/ha
Experimental: as §1, §2

Helianthus annuus [13] = experiment: Postemergence herbicidal activity (Example 67); conditions: pos, 800 g/ha
Experimental: as §1, §2

Hordeum vulgare [14] = experiment: Postemergence herbicidal activity (Example 67); conditions: pos, 800 g/ha
Experimental: as §1, §2

Setaria viridis [15] = experiment: Postemergence herbicidal activity (Example 67); conditions: pos, 800 g/ha
Experimental: as §1, §2

Triticum aestivum [16] = experiment: Postemergence herbicidal activity (Example 67); conditions: pos, 800 g/ha
Experimental: as §1, §2

Veronica persica [17] = experiment: Postemergence herbicidal activity (Example 67); conditions: pos, 800 g/ha
Experimental: as §1, §2

Zea mays [18] = experiment: Postemergence herbicidal activity (Example 67); conditions: pos, 800 g/ha
Experimental: as §1, §2

Alopecurus myosuroides [19] = experiment: Preemergence herbicidal activity (Example 67); conditions: pre, 800 g/ha
Experimental: as §1, §2, §3

Abutilon theophrasti [20] = experiment: Preemergence herbicidal activity (Example 67); conditions: pre, 800 g/ha
Experimental: as §1, §2, §3

Ipomoea hederacea [21] = experiment: Preemergence herbicidal activity (Example 67); conditions: pre, 800 g/ha
Experimental: as §1, §2, §3

Abutilon theophrasti [22] = experiment: Postemergence herbicidal activity (Example 67); conditions: pos, 800 g/ha
Experimental: as §1, §2

Alopecurus myosuroides [23] = experiment: Postemergence herbicidal activity (Example 67); conditions: pos, 800 g/ha
Experimental: as §1, §2

Ipomoea hederacea [24] = experiment: Postemergence herbicidal activity (Example 67); conditions: pos, 800 g/ha
Experimental: as §1, §2

| SMILES | TRZ AW rating (Triticum aestivum [1]) | HOR VW rating (Hordeum vulgare [2]) | SET VI rating (Setaria viridis [3]) | AMA RE rating (Amaranthus retroflexus [4]) | CHE AL rating (Chenopodium album [5]) | GAL AP rating (Galium aparine [6]) | HEL AN rating (Helianthus annuus [7]) | VER PE rating (Veronica persica [8]) | ZEA MX rating (Zea mays [9]) | AMA RE rating (Amaranthus retroflexus [10]) | CHE AL rating (Chenopodium album [11]) | GAL AP rating (Galium aparine [12]) | HEL AN rating (Helianthus annuus [13]) | HOR VW rating (Hordeum vulgare [14]) | SET VI rating (Setaria viridis [15]) | TRZ AW rating (Triticum aestivum [16]) | VER PE rating (Veronica persica [17]) | ZEA MX rating (Zea mays [18]) | also measured |
| --- | --- | --- | --- | --- | --- | --- | --- | --- | --- | --- | --- | --- | --- | --- | --- | --- | --- | --- | --- |
| CC(NC(=O)c1nc(-c2c(F)cccc2F)ns1)c1cccs1 (racemic) [Example 58, (R/S)-3-(2,6-Difluorophenyl)-[1,2,4]thiadiazole-5-carboxylic acid, [1-(2-thienyl)ethyl]amide] | 0 | 0 | 0 | 0 | 0 | 0 | 0 | 0 | 0 | 7 (80-90%) | 6 (65-79%) | 6 (65-79%) | 9 (100% effect) | 3 (16-29%) | 2 (6-15%) | 2 (6-15%) | 4 (30-44%) | 0 | – |
| COc1ccc(-c2nsc(C(=O)NC(C)c3ccsc3)n2)cc1 (racemic) [Example 61] | 0 | 0 | 0 | 0 | – | 0 | 0 | 0 | 0 | 0 | – | 0 | 2 (6-15%) | 0 | 0 | 0 | 0 | 0 | ALO MY rating (Alopecurus myosuroides [19]): 0; ABU TH rating (Abutilon theophrasti [20]): 0; IPO HE rating (Ipomoea hederacea [21]): 0; ABU TH rating (Abutilon theophrasti [22]): 0; ALO MY rating (Alopecurus myosuroides [23]): 1 (1-5%); IPO HE rating (Ipomoea hederacea [24]): 0 |
| C[C@H](NC(=O)c1nc(-c2c(F)cccc2F)ns1)c1ccccc1 [Example 59, (S)-3-(2,6-Difluorophenyl)-[1,2,4]thiadiazole-5-carboxylic acid, 1-(phenylethyl)amide] | 0 | 0 | 3 (16-29%) | 3 (16-29%) | 0 | 3 (16-29%) | 0 | 6 (65-79%) | 0 | 8 (91-99%) | 7 (80-90%) | 6 (65-79%) | 6 (65-79%) | 3 (16-29%) | 3 (16-29%) | 3 (16-29%) | 8 (91-99%) | 0 | – |
| O=C(NCc1cccs1)c1nc(-c2c(F)cccc2F)ns1 [Example 60] | 0 | 0 | 0 | 0 | 0 | 0 | 0 | 0 | 0 | 5 (45-64%) | 0 | 0 | 3 (16-29%) | 0 | 0 | 0 | 0 | 3 (16-29%) | – |
